From US10487068B2, “Pyridazine derivatives as RORc modulators” (Genentech, Inc., priority 2015, dated 2019)

These compounds were tested against T1, RORc ligand binding domain (Homo sapiens, UniProt P51449) (assay: In Vitro RORc Ligand Binding Assay). Settings: RORc IC50, radioligand 25-[3H]hydroxycholesterol 6 nM; 0.6 ug/mL RORc receptor; 3 h at 25° C.
T1 sequence (P51449 269-508 limits assumed): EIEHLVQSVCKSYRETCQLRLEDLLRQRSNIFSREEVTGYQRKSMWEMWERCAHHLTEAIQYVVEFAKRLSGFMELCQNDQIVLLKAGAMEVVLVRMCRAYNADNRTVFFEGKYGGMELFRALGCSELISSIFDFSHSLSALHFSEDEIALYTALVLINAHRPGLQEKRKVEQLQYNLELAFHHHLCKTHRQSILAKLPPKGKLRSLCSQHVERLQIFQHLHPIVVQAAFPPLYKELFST
Work on Cc1nc(-c2ccnc([C@@]34CC[C@@H](c5cc(-c6c(F)cccc6F)nnc53)C4(C)C)n2)co1 [Example 275, 4-(2-((5R,8R)-3-(2,6-difluorophenyl)-9,9-dimethyl-5,6,7,8-tetrahydro-5,8-methanocinnolin-8-yl)pyrimidin-4-yl)-2-methyloxazole] yielded an IC50 of 10.3 nM.
CC(C)(O)c1ncn(-c2nccc([C@@]34CC[C@@H](c5cc(-c6c(F)cccc6F)nnc53)C4(C)C)n2)n1 [Example 276] showed an IC50 of 15.5 nM.
Compound CNC(=O)c1nc(-c2ncc(F)c([C@@]34CC[C@@H](c5cc(-c6c(F)cccc6F)nnc53)C4(C)C)n2)no1 [Example 277] has an IC50 of 12.4 nM.
CC[C@@H](O)c1n[nH]c(-c2cncc([C@@]34CC[C@@H](c5cc(-c6c(F)cccc6F)nnc53)C4(C)C)n2)n1 [Example 278, (R)-1-(5-(6-((5R,8S)-3-(2,6-difluorophenyl)-9,9-dimethyl-5,6,7,8-tetrahydro-5,8-methanocinnolin-8-yl)pyrazin-2-yl)-1H-1,2,4-triazol-3-yl)propan-1-ol] was tested, and the IC50 was 6.8 nM.
Compound C[C@@H](O)Cc1n[nH]c(-c2cncc([C@@]34CC[C@@H](c5cc(-c6c(F)cccc6F)nnc53)C4(C)C)n2)n1 [Example 279, (R)-1-(5-(6-((5R,8S)-3-(2,6-difluorophenyl)-9,9-dimethyl-5,6,7,8-tetrahydro-5,8-methanocinnolin-8-yl)pyrazin-2-yl)-1H-1,2,4-triazol-3-yl)propan-2-ol] has an IC50 of 12.6 nM.
With CC(C)(O)c1c[nH]c(-c2cncc([C@@]34CC[C@@H](c5cc(-c6c(F)cccc6F)nnc53)C4(C)C)n2)n1 [Example 280, 2-(2-(6-((5R,8S)-3-(2,6-difluorophenyl)-9,9-dimethyl-5,6,7,8-tetrahydro-5,8-methanocinnolin-8-yl)pyrazin-2-yl)-1H-imidazol-4-yl)propan-2-ol] the IC50 was 13.6 nM.
In the case of CC(C)(O)c1coc(-c2ccnc([C@@]34CC[C@@H](c5cc(-c6c(F)cccc6F)nnc53)C4(C)C)n2)n1 [Example 281, 2-(2-(2-((5R,8R)-3-(2,6-difluorophenyl)-9,9-dimethyl-5,6,7,8-tetrahydro-5,8-methanocinnolin-8-yl)pyrimidin-4-yl)oxazol-4-yl)propan-2-ol], the IC50 is reported as 14.9 nM.
COC(=O)c1ccn(-c2nccc([C@@]34CC[C@@H](c5cc(-c6c(F)cccc6F)nnc53)C4(C)C)n2)n1 [Example 282] showed an IC50 of 4.9 nM.
Work on CC1(C)[C@H]2CC[C@]1(c1nc(-c3nc(C(N)=O)no3)ncc1F)c1nnc(-c3c(F)cccc3F)cc12 [Example 283] yielded an IC50 of 11.6 nM.
CC1(C)[C@H]2CC[C@]1(c1nccc(-n3ccc(CO)n3)n1)c1nnc(-c3c(F)cccc3F)cc12 [Example 284, (1-(2-((5R,8R)-3-(2,6-difluorophenyl)-9,9-dimethyl-5,6,7,8-tetrahydro-5,8-methanocinnolin-8-yl)pyrimidin-4-yl)-1H-pyrazol-3-yl)methanol] was tested, and the IC50 was 27.6 nM.
With CC1(C)[C@H]2CC[C@]1(c1cncc(-c3nc(C4(O)CC4)n[nH]3)n1)c1nnc(-c3c(F)cccc3F)cc12 [Example 285, 1-(5-(6-((5R,8S)-3-(2,6-difluorophenyl)-9,9-dimethyl-5,6,7,8-tetrahydro-5,8-methanocinnolin-8-yl)pyrazin-2-yl)-1H-1,2,4-triazol-3-yl)cyclopropanol] the IC50 was 4.1 nM.
Compound CC1(C)[C@H]2CC[C@]1(c1cncc(-c3nc([C@@H](O)CO)n[nH]3)n1)c1nnc(-c3c(F)cccc3F)cc12 [Example 286, (R)-1-(5-(6-((5R,8S)-3-(2,6-difluorophenyl)-9,9-dimethyl-5,6,7,8-tetrahydro-5,8-methanocinnolin-8-yl)pyrazin-2-yl)-1H-1,2,4-triazol-3-yl)ethane-1,2-diol] has an IC50 of 10.6 nM.
Compound CC1(C)[C@H]2CC[C@]1(c1nc(-n3ccc(CO)n3)ncc1F)c1nnc(-c3c(F)cccc3F)cc12 [Example 287] has an IC50 of 12.1 nM.
CC1(C)[C@H]2CC[C@]1(c1nc(-c3nc(CO)no3)ncc1F)c1nnc(-c3c(F)cccc3F)cc12 [Example 288, (5-(4-((5R,8S)-3-(2,6-difluorophenyl)-9,9-dimethyl-5,6,7,8-tetrahydro-5,8-methanocinnolin-8-yl)-5-fluoropyrimidin-2-yl)-1,2,4-oxadiazol-32-(1-(4-((5R,8S)-3-(2,6-difluorophenyl)-9,9-dimethyl-5,6,7,8-tetrahydro-5,8-methanocinnolin-8-yl)pyrimidin-2-yl)-1H-pyrazol-3-yl)propan-2-ol-yl)methanol] was tested, and the IC50 was 20.3 nM.
CC1(C)[C@H]2CC[C@]1(c1ccnc(-c3ccc(=O)[nH]c3)n1)c1nnc(-c3c(F)cccc3F)cc12 [Example 289] was tested, and the IC50 was 15.1 nM.
CC(C)(O)c1ccn(-c2nccc([C@@]34CC[C@@H](c5cc(-c6c(F)cccc6F)nnc53)C4(C)C)n2)n1 [Example 290] showed an IC50 of 33.5 nM.
Compound CC1(C)[C@H]2CC[C@]1(c1ccnc(-n3ccc(C(N)=O)n3)n1)c1nnc(-c3c(F)cccc3F)cc12 [Example 291] has an IC50 of 34.3 nM.
Compound CC(C)(O)c1nc(-c2ncc(Cl)c([C@@]34CC[C@@H](c5cc(-c6c(F)cccc6F)nnc53)C4(C)C)n2)no1 [Example 292] has an IC50 of 13.9 nM.
CC1(C)[C@H]2CC[C@]1(c1cncc(-c3nc(C[C@H](O)CO)n[nH]3)n1)c1nnc(-c3c(F)cccc3F)cc12 [Example 293, (S)-3-(5-(6-((5R,8S)-3-(2,6-difluorophenyl)-9,9-dimethyl-5,6,7,8-tetrahydro-5,8-methanocinnolin-8-yl)pyrazin-2-yl)-1H-1,2,4-triazol-3-yl)propane-1,2-diol] was tested, and the IC50 was 28 nM.
CC1(C)[C@H]2CC[C@]1(c1cncc(-c3nc(CS(C)(=O)=O)n[nH]3)n1)c1nnc(-c3c(F)cccc3F)cc12 [Example 294] showed an IC50 of 23.3 nM.
For CC[C@H](O)c1n[nH]c(-c2cncc([C@@]34CC[C@@H](c5cc(-c6c(F)cccc6F)nnc53)C4(C)C)n2)n1 [Example 295, (S)-1-(5-(6-((5R,8S)-3-(2,6-difluorophenyl)-9,9-dimethyl-5,6,7,8-tetrahydro-5,8-methanocinnolin-8-yl)pyrazin-2-yl)-1H-1,2,4-triazol-3-yl)propan-1-ol], the IC50 was 15.2 nM.
In the case of CC1(C)[C@H]2CC[C@]1(c1cncc(C3=NNC(=O)CN3)n1)c1nnc(-c3c(F)cccc3F)cc12 [Example 296, 3-(6-((5R,8S)-3-(2,6-difluorophenyl)-9,9-dimethyl-5,6,7,8-tetrahydro-5,8-methanocinnolin-8-yl)pyrazin-2-yl)-4,5-dihydro-1,2,4-triazin-6(1H)-one], the IC50 is reported as 20.9 nM.
Work on C[C@H](O)Cc1n[nH]c(-c2cncc([C@@]34CC[C@@H](c5cc(-c6c(F)cccc6F)nnc53)C4(C)C)n2)n1 [Example 297, (S)-1-(5-(6-((5R,8S)-3-(2,6-difluorophenyl)-9,9-dimethyl-5,6,7,8-tetrahydro-5,8-methanocinnolin-8-yl)pyrazin-2-yl)-1H-1,2,4-triazol-3-yl)propan-2-ol] yielded an IC50 of 19.9 nM.
Cc1n[nH]cc1-c1nccc([C@@]23CC[C@@H](c4cc(-c5c(F)cccc5F)nnc42)C3(C)C)n1 [Example 298] showed an IC50 of 5.7 nM.
Compound CC1(C)[C@H]2CC[C@]1(c1ccnc(N3CC(C(N)=O)C3)n1)c1nnc(-c3c(F)cccc3F)cc12 [Example 299] has an IC50 of 24.1 nM.
CC1(C)[C@H]2CC[C@]1(c1ccnc(-n3ccc(CC(N)=O)n3)n1)c1nnc(-c3c(F)cccc3F)cc12 [Example 300] showed an IC50 of 12.2 nM.
Compound CC(C)(O)c1nc(-c2cncc([C@@]34CC[C@@H](c5cc(-c6c(F)cccc6F)nnc53)C4(C)C)n2)c[nH]1 [Example 301, 2-(4-(6-((5R,8S)-3-(2,6-difluorophenyl)-9,9-dimethyl-5,6,7,8-tetrahydro-5,8-methanocinnolin-8-yl)pyrazin-2-yl)-1H-imidazol-2-yl)propan-2-ol] has an IC50 of 13.6 nM.
CC1(C)[C@H]2CC[C@]1(c1nccc(-c3ccn[nH]3)n1)c1nnc(-c3c(F)cccc3F)cc12 [Example 302, (5R,8R)-8-(4-(1H-pyrazol-5-yl)pyrimidin-2-yl)-3-(2,6-difluorophenyl)-9,9-dimethyl-5,6,7,8-tetrahydro-5,8-methanocinnoline] was tested, and the IC50 was 9.9 nM.
In the case of CC1(C)[C@H]2CC[C@]1(c1ccnc(-n3ccc(=O)[nH]3)n1)c1nnc(-c3c(F)cccc3F)cc12 [Example 303], the IC50 is reported as 15 nM.
CC(C)(O)c1cc(-c2cccc([C@@]34CC[C@@H](c5cc(-c6c(F)cccc6F)nnc53)C4(C)C)n2)[nH]n1 [Example 304, 2-(5-(6-((5R,8S)-3-(2,6-difluorophenyl)-9,9-dimethyl-5,6,7,8-tetrahydro-5,8-methanocinnolin-8-yl)pyridin-2-yl)-1H-pyrazol-3-yl)propan-2-ol] gave an IC50 of 9.4 nM.
Compound CC1(C)[C@H]2CC[C@]1(c1ccnc(-n3cnc(N)n3)n1)c1nnc(-c3c(F)cccc3F)cc12 [Example 305] has an IC50 of 19.6 nM.
For CC1(C)[C@H]2CC[C@]1(c1cncc(-c3nc(CCO)n[nH]3)n1)c1nnc(-c3c(F)cccc3F)cc12 [Example 306, 2-(5-(6-((5R,8S)-3-(2,6-difluorophenyl)-9,9-dimethyl-5,6,7,8-tetrahydro-5,8-methanocinnolin-8-yl)pyrazin-2-yl)-1H-1,2,4-triazol-3-yl)ethanol], the IC50 was 16.2 nM.
CC(C)(O)C1CN(c2nccc([C@@]34CC[C@@H](c5cc(-c6c(F)cccc6F)nnc53)C4(C)C)n2)C1 [Example 307] showed an IC50 of 13.5 nM.
Compound CC1(C)[C@H]2CC[C@]1(c1cncc(-c3nc([C@@H](O)C(F)(F)F)n[nH]3)n1)c1nnc(-c3c(F)cccc3F)cc12 [Example 308, (R)-1-(5-(6-((5R,8S)-3-(2,6-difluorophenyl)-9,9-dimethyl-5,6,7,8-tetrahydro-5,8-methanocinnolin-8-yl)pyrazin-2-yl)-1H-1,2,4-triazol-3-yl)-2,2,2-trifluoroethanol] has an IC50 of 104 nM.
